From patent US20200163984A1, “USE OF ISOVALERYL SPIRAMYCIN I, II AND/OR III IN MANUFACTURING MEDICAMENT FOR TREATING AND/OR PREVENTING TUMOR, AND MEDICAMENT” (SHENYANG FUYANG PHARMACEUTICAL TECHNOLOGY CO., LTD., priority 2017, published 2020)
Converted amounts (≈) assume the structure as drawn.

What was measured:
[1] = tested on: transplanted tumor of human prostate cancer cell PC3; assay: PC3 transplanted tumor in nude mice; details: for tumor volume and relative tumor volume compared with the model group: low, medium and high doses, P<0.05; for mouse weight compared with the model group: in vivo
Experimental: Then cell concentration was adjusted to 1×10^7/ml with matrigel, then each nude mouse was inoculated subcutaneously with 0.2 ml of cells at its right armpit and recorded as the first day of inoculation. When the tumor grows to be greater than or equal to 100 mm^3, the mice were randomly divided into 11 groups with 6 mice in each group: a model group, a cyclophosphamide group, isovaleryl spiramycin I groups with doses of 25, 50 and 100 mg/kg, isovaleryl spiramycin II groups with doses of 25, 50 and 100 mg/kg, and isovaleryl spiramycin III groups with doses of 25, 50 and 100 mg/kg. Each group was continuously administered intragastrically for 30 days with a dose of 20 ml/kg. The mice were sacrificed the next day after drug withdrawal and the indicators were tested. The long diameter and short diameter of the tumor, and the body weight of each mouse were recorded every 3 days from drug administration to nude mouse sacrifice.
The body weight of the nude mice and the long diameter (a) and short diameter (b) of the transplanted tumor were measured every 3 days, and the tumor volume (v), relative tumor volume (RTV) and relative tumor proliferation rate (T/C) are calculated respectively according to the following formulas, wherein V=a×b^2/2; RTV=V/V0 (V0 is the tumor volume before administration, V is the tumor volume before sacrifice), and T/C (%)=treatment group RTV/model control group RTV×100%.
Each mouse was weighed and sacrificed. After the tumor was completely stripped off from the body of the mouse, the non-tumor tissues such as blood stains and fat were removed to weigh the tumor and calculate the tumor growth inhibition rate. The average tumor weight of each group of mice is used as an indicator of efficacy. Tumor growth inhibition rate (%)=(1−the average tumor weight of the treatment group/the average tumor weight of the model group)×100%.

[2] = tested on: human pancreatic cancer cell PANC-1; details: PANC-1, MTT, 48 hours
Experimental: (§1) The purpose of the assay is to evaluate the in vitro cell proliferation inhibition or cytotoxic activity of a tested sample.
(§2) MCF-7, MDA-MB-231, HepG2, A549, H460, H1299, 786-0, 769-P, U251, A172, HeLa, PC3, PANC-1, TE-1, SGC7901, and HT-29 were adherent tumor cells. The adherent tumor cells in the logarithmic growth phase were selected and digested with trypsin, then were prepared into a 4 to 5×10^4/ml cell suspension by a medium containing 10% fetal bovine serum. And the cell suspension was inoculated in a 96-well culture plate, and each well was 100 μL. The 96-well culture plate was cultured at 37° C. and 5% CO2 for 24 hours. The experimental group was replaced with a new culture medium containing different concentrations of the sample to be tested, namely, isovaleryl spiramycin I, isovaleryl spiramycin II, or isovaleryl spiramycin III, while the control group was replaced with a culture medium containing the same volume of solvent. Each group was set up with 3 parallel wells that were cultured at 37° C. and 5% CO2 for 48 hours. After the supernatant was removed, the wells were washed carefully for 3 times with PBS. And 100 μL of freshly prepared culture medium containing 0.5 mg/ml MTT was added to each well for continuous incubation for 4 hours at 37° C. After the supernatant was removed carefully, 150 μL of DMSO was added to each well, and after the material was mixed for 10 minutes with a micro-oscillator, the optical density value was measured at 492 nm with a microplate reader.
(§3) The inhibition rate of the medicament on tumor cell growth is calculated according to the following formula:
(§4) Tumor cell growth inhibition rate (%)=[A492 (negative control)−A492 (dosing group)]/A492 (negative control)×100%
(§5) And the half-inhibitory concentration (IC50) of the sample is determined therefrom.

[3] = tested on: human breast cancer cells MDA-MB-231; details: MDA-MB-231, MTT, 48 hours
Experimental: as §1, §2, §3, §4, §5

[4] = tested on: human renal cell adenocarcinoma cell 769-P; details: MTT, 48 hours
Experimental: as §1, §2, §3, §4, §5

[5] = tested on: human glioblastoma cell A172; details: A172, MTT, 48 hours
Experimental: as §1, §2, §3, §4, §5

[6] = tested on: human large cell lung cancer cells H1299; details: H1299, MTT, 48 hours
Experimental: as §1, §2, §3, §4, §5

[7] = tested on: human large cell lung cancer cells H460; details: H460, MTT, 48 hours
Experimental: as §1, §2, §3, §4, §5

[8] = tested on: human hepatoma cells HepG2; details: HepG2, MTT, 48 hours
Experimental: as §1, §2, §3, §4, §5

[9] = tested on: human prostate cancer cell PC3; details: PC3, MTT, 48 hours
Experimental: as §1, §2, §3, §4, §5

[10] = tested on: human colon cancer cell HT-29; details: HT-29, MTT, 48 hours
Experimental: as §1, §2, §3, §4, §5

[11] = tested on: human breast cancer cells MCF-7; details: MCF-7, MTT, 48 hours
Experimental: as §1, §2, §3, §4, §5

[12] = tested on: human non-small cell lung cancer cells A549; details: A549, MTT, 48 hours
Experimental: as §1, §2, §3, §4, §5

[13] = tested on: human cervical cancer cell HeLa; details: MTT, 48 hours
Experimental: as §1, §2, §3, §4, §5

[14] = tested on: human gastric adenocarcinoma cell SGC7901; details: SGC-7901, MTT, 48 hours
Experimental: as §1, §2, §3, §4, §5

[15] = tested on: human esophageal cancer cell TE-1; details: TE-1, MTT, 48 hours
Experimental: as §1, §2, §3, §4, §5

human glioma cell U251 = details: U251, MTT, 48 hours
Experimental: as §1, §2, §3, §4, §5

[16] = tested on: human renal clear cell adenocarcinoma cell 786-O; details: MTT, 48 hours
Experimental: as §1, §2, §3, §4, §5

[17] = PC3, 25 mg/kg (low dose) i.g. 30 days
[18] = PC3, 50 mg/kg (medium dose) i.g. 30 days
[19] = PC3, 100 mg/kg (high dose) i.g. 30 days

## CCC(=O)O[C@@H]1CC(=O)O[C@H](C)C/C=C/C=C/[C@H](O[C@H]2CC[C@H](N(C)C)[C@@H](C)O2)[C@H](C)C[C@H](CC=O)[C@H](O[C@@H]2O[C@H](C)[C@@H](O[C@H]3C[C@@](C)(O)[C@@H](OC(=O)CC(C)C)[C@H](C)O3)[C@H](N(C)C)[C@H]2O)[C@H]1OC [Isovaleryl spiramycin III, isovaleryl spiramycin III]
[1]; [17]
  Inhibition Rate (tumor growth inhibition rate): 25.43%
  Relative Tumor Proliferation Rate (T/C): 75.75%
  Relative Tumor Volume (RTV): 14.82 ± 7.55
  Tumor Volume (d 1): 146.91 ± 6.70 mm3
  Tumor Volume (d 30): 1914.85 ± 729.54 mm3
  Tumor Weight: 1.40 ± 0.54 g
[1]; PC3, 25 mg/kg (low dose) i.g. 30 days, listed as isovaleryl spiramycin III
  Inhibition Rate (tumor growth inhibition rate): 25.44%
[1]; [18]
  Inhibition Rate (tumor growth inhibition rate): 40.16%
  Relative Tumor Proliferation Rate (T/C): 55.01%
  Relative Tumor Volume (RTV): 10.76 ± 2.24
  Tumor Volume (d 1): 187.01 ± 50.28 mm3
  Tumor Volume (d 30): 1935.79 ± 228.06 mm3
  Tumor Weight: 1.12 ± 0.45 g
[1]; PC3, 50 mg/kg (medium dose) i.g. 30 days, listed as isovaleryl spiramycin III
  Relative Tumor Proliferation Rate (T/C): 55.02%
[1]; [19]
  Inhibition Rate (tumor growth inhibition rate): 60.37%
  Relative Tumor Proliferation Rate (T/C): 34.57%
  Relative Tumor Volume (RTV): 6.76 ± 1.61
  Tumor Volume (d 1): 155.11 ± 7.98 mm3
  Tumor Volume (d 30): 1051.03 ± 272.23 mm3
  Tumor Weight: 0.75 ± 0.25 g
[1]; PC3
  tumor volume and relative tumor volume compared with the model group: significantly lower
[1]
  mouse weight compared with the model group: no significant changes
[2]
  IC50: 13.18 ± 0.23 µg/mL (≈ 13.4 µM)
[3]
  IC50: 29.47 ± 0.28 µg/mL (≈ 30 µM)
[4]
  IC50: 10.75 ± 0.56 µg/mL (≈ 10.9 µM)
[5]
  IC50: 16.17 ± 0.54 µg/mL (≈ 16.4 µM)
[6]
  IC50: 32.40 ± 0.41 µg/mL (≈ 33 µM)
[7]
  IC50: 28.80 ± 0.19 µg/mL (≈ 29.3 µM)
[8]
  IC50: 27.42 ± 3.52 µg/mL (≈ 27.9 µM)
[9]
  IC50: 16.37 ± 0.27 µg/mL (≈ 16.6 µM)
[10]
  IC50: 22.68 ± 2.32 µg/mL (≈ 23.1 µM)
[11]
  IC50: 32.44 ± 1.18 µg/mL (≈ 33 µM)
[12]
  IC50: 28.84 ± 1.73 µg/mL (≈ 29.3 µM)
[13]
  IC50: 15.86 ± 0.62 µg/mL (≈ 16.1 µM)
[14]
  IC50: 17.26 ± 0.79 µg/mL (≈ 17.6 µM)
[15]
  IC50: 20.19 ± 1.83 µg/mL (≈ 20.5 µM)
Human glioma cell U251
  IC50: 16.46 ± 1.54 µg/mL (≈ 16.7 µM)
[16]
  IC50: 10.52 ± 0.56 µg/mL (≈ 10.7 µM)

## COC1C(OC(C)=O)CC(=O)OC(C)CC=CC=CC(OC2CCC(N(C)C)C(C)O2)C(C)CC(CC=O)C1OC1OC(C)C(OC2CC(C)(O)C(OC(=O)CC(C)C)C(C)O2)C(N(C)C)C1O (stereo not shown) [Isovaleryl spiramycin II, isovaleryl spiramycin II]
[1]; [17]
  Inhibition Rate (tumor growth inhibition rate): 23.49%
  Relative Tumor Proliferation Rate (T/C): 83.04%
  Relative Tumor Volume (RTV): 16.24 ± 6.00
  Tumor Volume (d 1): 154.86 ± 4.11 mm3
  Tumor Volume (d 30): 2404.85 ± 672.33 mm3
  Tumor Weight: 1.44 ± 0.56 g
[1]; [18]
  Inhibition Rate (tumor growth inhibition rate): 40.16%
  Relative Tumor Proliferation Rate (T/C): 60.08%
  Relative Tumor Volume (RTV): 11.75 ± 3.78
  Tumor Volume (d 1): 157.25 ± 38.97 mm3
  Tumor Volume (d 30): 1729.14 ± 128.57 mm3
  Tumor Weight: 1.13 ± 0.43 g
[1]; [19]
  Inhibition Rate (tumor growth inhibition rate): 50.44%
  Relative Tumor Proliferation Rate (T/C): 44.48%
  Relative Tumor Volume (RTV): 8.70 ± 2.61
  Tumor Volume (d 1): 131.11 ± 22.05 mm3
  Tumor Volume (d 30): 1162.46 ± 495.46 mm3
  Tumor Weight: 0.93 ± 0.27 g
[1]; PC3
  tumor volume and relative tumor volume compared with the model group: significantly lower
[1]
  mouse weight compared with the model group: no significant changes
[2]
  IC50: 31.93 ± 0.12 µg/mL (≈ 32.9 µM)
[3]
  IC50: 49.60 ± 0.39 µg/mL (≈ 51.2 µM)
[4]
  IC50: 20.61 ± 0.48 µg/mL (≈ 21.3 µM)
[5]
  IC50: 33.62 ± 0.57 µg/mL (≈ 34.7 µM)
[6]
  IC50: 42.24 ± 0.44 µg/mL (≈ 43.6 µM)
[7]
  IC50: 41.16 ± 0.71 µg/mL (≈ 42.5 µM)
[8]
  IC50: 37.94 ± 1.71 µg/mL (≈ 39.1 µM)
[9]
  IC50: 32.88 ± 0.53 µg/mL (≈ 33.9 µM)
[10]
  IC50: 31.05 ± 3.23 µg/mL (≈ 32 µM)
[11]
  IC50: 51.14 ± 2.54 µg/mL (≈ 52.8 µM)
[12]
  IC50: 36.97 ± 2.92 µg/mL (≈ 38.1 µM)
[13]
  IC50: 33.31 ± 0.40 µg/mL (≈ 34.4 µM)
[14]
  IC50: 39.14 ± 1.21 µg/mL (≈ 40.4 µM)
[15]
  IC50: 35.59 ± 2.64 µg/mL (≈ 36.7 µM)
Human glioma cell U251
  IC50: 35.35 ± 1.57 µg/mL (≈ 36.5 µM)
[16]
  IC50: 20.18 ± 0.86 µg/mL (≈ 20.8 µM)

## O=P1(N(CCCl)CCCl)NCCCO1 (stereo not shown) [Cyclophosphamide, cyclophosphamide, reference compound]
[1]; PC3, 30 mg/kg i.g. 30 days
  Body Weight (d 1): 21.57 ± 0.75 g
  Body Weight (d 30): 16.43 ± 0.78 g
  Inhibition Rate (tumor growth inhibition rate): 70.03%
  Relative Tumor Proliferation Rate (T/C): 29.33%
  Relative Tumor Volume (RTV): 5.73 ± 2.23
  Tumor Volume (d 1): 155.36 ± 34.96 mm3
  Tumor Volume (d 30): 834.50 ± 135.35 mm3
  Tumor Weight: 0.56 ± 0.17 g
